Values joined by “and” are separate entries in the source; they are usually repeats but may differ in a detail not shown here. Equal entries are not always repeated.
What was measured:
[1] = test system: ischaemic skeletal muscle (m. gastrocnemius); assay: pO2 (oxygen tension) measurement in ischaemic skeletal muscle of anaesthetized cats; assay type: in vivo, cat; details: for effect of Compound A, ΔpO2: 125 μg/kg i.v.; for effect of Compound A, ΔpO2 / effect of Compound B, ΔpO2: individual cats; for change of pO2 of ischaemic skeletal muscle (in words): B and C at 5-32 mg/kg compared with Compound A at 125 μg/kg; for effect of Compound B, ΔpO2: 5 mg/kg i.v.
Protocol: pO2 was measured polarographically using Pt-needle electrodes (modified according to Baumgartl and Lubbers, 1973). The reference electrode, an Ag/A/AgCl system was sputtered on the glass mantle of the cathode, or it was a separate electrode. The cathode was coated with a polystyrol and a collodium membrane. A constant voltage supply provided a polarizing voltage between 600 and 800 mV. The reducing current was measured by a nano-ampere amplifying meter. The cathode was inserted in the tissue by means of a motor-driven micromanipulator.
A pO2 -electrode was inserted in the muscle tissue (m. gastrocnemius) of both hindlegs of an anaesthetized cat. After recording the pO2 of the normal perfused muscle, the blood flow to one measuring site was restricted by ligating the femoral artery. The pO2 dropped steeply and the tissue became ischaemic. After a few minutes, the pO2 increased and then decreased again. The values were constant after 30 to 60 min. After having reached a constant level of pO2, the vehicle was given, followed by the test substance.
The mean value and the standard deviation were calculated, in order to check the significance of the effect.

[2] = test system: ischaemic skeletal muscle (calf muscles); assay: Skeletal muscle contractility in anaesthetized cats with restricted femoral blood flow; assay type: in vivo, cat; details: for change of contractility of ischaemic skeletal muscle (in words) / contractility (% initial value): cat; for change of contractility of ischaemic skeletal muscle (in words): B and C at 5-32 mg/kg compared with Compound A at 125 μg/kg; for contractility (% initial value): ischaemic muscle
Protocol: (§1) Cats of either sex were anaesthetized with urethane/chloralose (120/60 mg/kg i.p.). In the course of the experiments, pentobarbital was injected intravenously (V. antebrachii ceph.) via a plastic tube. The intraduodenal (i.d.) application of compound was conducted by means of a plastic catheter, which was inserted into the duodenum.
(§2) Cats of either sex were anaesthetized as for pO2 measurement. After dissection of the skin of the calf muscles, the sciatic nerve was cut about 3 cm proximal to the knee. The tendon of the calf muscles was cut and connected with an isometric force transducer (SWEMA, SG 3). In order to maintain constant differences and a resting tension of 100 p, the hind limb was fixed at the tibia by means of a clamp. Direct stimulation of the muscles consisted of square wave pulses of 4 msec duration at a frequency of 2 Hz and at a voltage of 50 V. In order to keep the muscles wet and at a normal temperature, the muscles were continuously superfused by means of a NaCl-solution (0.9%, 38° C.). Femoral blood flow was restricted by a graded occlusion of the artery leading to a reduction of contractility by ca. 30%. After having reached a constant level of the contraction force, the vehicle (NaCl and Methocel, respectively) was injected, followed by the test substance.

[3] = Blood pressure (BP) change in the cat contractility experiment (Table 3); assay type: in vivo
Protocol: as §1, §2

[4] = Solubility in water / aqueous media; assay type: physicochemical
[5] = in vivo; cited from earlier work
[6] = control (hind limb not ligated)
[7] = contractility and pO2 of ischaemic skeletal muscle, cat
[8] = i.d., Compound A 125 μg/kg, Compound B 32 mg/kg, Compound C 12.5 mg/kg
[9] = i.v., Compound A 50 μg/kg, Compound B 5 mg/kg

## CCCCn1c(=O)c2c(ncn2CC(C)=O)n(CCCC)c1=O [Compound A, 1,3-di-n-butyl-7-(2-oxopropyl)xanthine]
[1]; [6]
  effect of Compound A, ΔpO2: 13.2 Torr and 3.8 Torr and 3.5 Torr and 19.3 Torr and 3.4 Torr
[1]; hind limb art. ligation
  effect of Compound A, ΔpO2: 6.2 Torr and 7.3 Torr and 5.2 Torr and 27.1 Torr and 11.2 Torr and 5.6 Torr
[1]; cat
  change of pO2 of ischaemic skeletal muscle (in words): distinct increase
[1]; [7]
  high activity in the μg-range (dose range): 0.05 to 0.125 mg/kg
[2]; 50 μg/kg i.v.
  Δ muscle contract., t (time interval to reach initial values): > 60 min
[2]; 50 μg/kg i.v., mean, n 4
  Δ muscle contract.: +36.0 percentage of initial values
[2]; 125 μg/kg i.v.
  Δ muscle contract., t (time interval to reach initial values): > 60 min
[2]; 125 μg/kg i.v., mean
  Δ muscle contract.: +19.0 percentage of initial values
[2]; 313 μg/kg i.v., n = 1
  Δ muscle contract.: +25.0 percentage of initial values
  Δ muscle contract., t (time interval to reach initial values): > 60 min
[2]
  change of contractility of ischaemic skeletal muscle (in words): distinct increase
[2]; [8]
  contractility (% initial value): 32 % initial value
[2]; [9]
  contractility (% initial value): 36 % initial value
[3]; 50 μg/kg i.v.
  Δ initial phase BP decrease, t (time interval to reach initial values): 2 min
  Δ second phase BP increase, t (time interval to reach initial values): 33 min
[3]; 50 μg/kg i.v., mean, n 4
  Δ initial phase BP decrease: -14.0 percentage of initial values
  Δ second phase BP increase: +17.0 percentage of initial values
[3]; 125 μg/kg i.v.
  Δ initial phase BP decrease, t (time interval to reach initial values): 3 min
  Δ second phase BP increase, t (time interval to reach initial values): 32 min
[3]; 125 μg/kg i.v., mean
  Δ initial phase BP decrease: -23.1 percentage of initial values
  Δ second phase BP increase: +10.8 percentage of initial values
[3]; 313 μg/kg i.v., n = 1
  Δ initial phase BP decrease: -25.0 percentage of initial values
  Δ initial phase BP decrease, t (time interval to reach initial values): 2 min
  Δ second phase BP increase: +15.0 percentage of initial values
  Δ second phase BP increase, t (time interval to reach initial values): 6 min
[4]; aqueous media
  solubility in aqueous media (in words): only sparingly soluble

## CC(=O)CCCCn1c(=O)c2c(ncn2C)n(C)c1=O [Compound B, pentoxyphylline, reference compound]
[1]; [6]
  effect of Compound B, ΔpO2: 0.3 Torr and 1.02 Torr and -2.4 Torr and 14.3 Torr and -0.9 Torr
[1]; hind limb art. ligation
  effect of Compound B, ΔpO2: -0.16 Torr and -1.5 Torr
[1]; B 5 mg/kg vs A 125 μg/kg, i.v.
  Mean effect of Compound B compared to Compound A: 21.3%
[1]; cat
  change of pO2 of ischaemic skeletal muscle (in words): less pronounced
[2]
  change of contractility of ischaemic skeletal muscle (in words): less pronounced
[2]; [8]
  contractility (% initial value): 23 % initial value
[2]; [9]
  contractility (% initial value): 9 % initial value
[5]
  oral toxicity (in words): low oral toxicity

## CCCCn1c(=O)c2c(ncn2CCC(C)=O)n(CCCC)c1=O [Compound C, 1,3-di-n-butyl-7-(3-oxobutyl)xanthine, reference compound]
[1]; cat
  change of pO2 of ischaemic skeletal muscle (in words): less pronounced
[1]; [7]
  dose range of activity: 5 to 32 mg/kg
[2]
  change of contractility of ischaemic skeletal muscle (in words): less pronounced
[2]; [8]
  contractility (% initial value): 22 % initial value
[4]; water, reason for not testing i.v.
  water solubility (in words): low water solubility

— patent publication US4256750A, “Pharmaceutical compositions” (Wulfing; Johann A., priority 1979, dated 1981)
